Test results from article PMC11067750, “Biophysical and structural study of La Crosse virus endonuclease inhibition for the development of new antiviral options” (IUCrJ, 2024).
Several values for one entry are separate records, joined by “and”; a condition that tells them apart may be missing. Identical values can stand only once. Like-named read-outs stand apart in the source and are kept apart here.

How the values were obtained:
[1] = target: T1, LACV EndoN (Bunyavirus La Crosse, UniProt A5HC98); assay: In vitro endonuclease FRET assay; assay type: biochemical, La Crosse virus; details: for fold greater inhibition efficiency than DPBA: ratio of IC50 values versus DPBA
Procedure: An in vitro endonuclease assay was used to investigate the inhibition of LACV EndoN by DPBA, L-742,001 and baloxavir. The reaction was conducted using a 20 µl sample in 20 mM Tris pH 7.6, 150 mM NaCl, 0.01% Tween 20, 1 mM DTT and was supplemented with 1 mM freshly prepared MnCl2. The 19-mer RNA at a concentration of 50 nM and a gradient concentration of inhibitor (from 0.004 to 100 µM) were pre-incubated at 25°C in the reaction buffer. The reaction was started upon the addition of LACV EndoN (pre-mixed with 1 mM MnCl2 and pre-incubated at 25°C for 5 min) at a final concentration of 0.25 µM. Fluorescence upon RNA cleavage was followed in a PHERAstar FSX microplate reader (BMG Labtech, Germany) at 25°C using wavelengths of 465 nm for excitation and 520 nm for emission.
The inhibition efficacies of the three ligands were tested against LACV EndoN in an endonuclease FRET assay and the results are summarized in Table 2 ▸. This was performed following the cleavage of a 19-mer RNA labelled with a 5′ fluorescent probe (6-FAM) and a 3′ quencher (BHQ1) in the presence of a range of ligand concentrations upon the addition of 0.25 µM LACV EndoN. In this FRET inhibition assay, the order in which the three partners of the catalytic complex (protein, ions and substrate RNA) are introduced is decisive. The reaction is triggered by adding the protein pre-incubated with ions to a mixture containing substrate RNA, ions and ligand. The design of the assay may constitute a limitation to the complete assessment of the binding efficiency of baloxavir to the enzyme, given the competition between substrate RNA, free ions and ligand. As described for FLUV, baloxavir is a tight-binding inhibitor with slow dissociation and acts by preventing binding of the RNA substrate (Omoto et al., 2018[▸]; Todd et al., 2021[▸]). In the context of the current biochemical assay, the interplay between the RNA substrate and the ligand presents an unfavourable scenario for binding of the metal-chelating ligand. […] This unexpected uniformity of the inhibition values underscores the remarkable potency of these compounds in the face of a challenging biochemical landscape.
Target sequence in this assay (A5HC98 1-185): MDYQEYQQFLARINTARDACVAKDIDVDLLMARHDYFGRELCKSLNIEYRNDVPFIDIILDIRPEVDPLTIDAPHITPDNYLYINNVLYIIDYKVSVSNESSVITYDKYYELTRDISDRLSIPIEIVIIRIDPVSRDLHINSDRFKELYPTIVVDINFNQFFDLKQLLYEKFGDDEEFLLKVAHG

[2] = target: T1, LACV EndoN; assay: Microscale thermophoresis (MST) binding affinity; design: species or system La Crosse virus; details: for Kd: Affinity K d, labelled protein 50 or 100 nM, 0.5 mM MnCl2, 5% DMSO, n = 3; for fold better affinity than DPBA: ratio of K d values versus DPBA
Target sequence in this assay (A5HC98 1-185): as above

[3] = target: T1, LACV EndoN; assay type: binding, La Crosse virus; details: for greater stabilization compared with DPBA: difference in ΔT m versus DPBA, with 0.5 mM MnCl2; for Stability ΔT m: 50 µM compound, 5 µM protein, baseline LACV EndoN in the presence of manganese (T m ≃ 56°C)
Procedure: The influence of compound binding on the stability of LACV EndoN was measured by a Thermofluor assay using a CFX Connect Bio-Rad real-time PCR machine at a protein concentration of 5 µM in a buffer consisting of 20 mM Tris–HCl pH 7.6, 150 mM NaCl, 2.5 mM β-mercaptoethanol supplemented with 0.5 mM freshly prepared MnCl2. The compound concentration was fixed at 50 µM (5% DMSO). In 96-well thin-walled PCR plates, 1 µl inhibitor was added to 17 µl buffer followed by the addition of 2 µl protein. Finally, 2 µl of the fluorescent dye SYPRO Orange (Thermo Fisher, catalog No. 4461146) was added (a fivefold final concentration). Controls were performed using the same protocol without MnCl2. The melting-temperature (T m) values given are the average and standard deviation of three independent experiments.
DSF is used to assess protein stabilization or destabilization upon the addition of cofactors by measuring the thermal stability (the thermal melting transition T m) arising from interaction with a fluorescent dye (SYPRO Orange) during denaturation.
(c) Structures of the studied ligands.
Target sequence in this assay (A5HC98 1-183): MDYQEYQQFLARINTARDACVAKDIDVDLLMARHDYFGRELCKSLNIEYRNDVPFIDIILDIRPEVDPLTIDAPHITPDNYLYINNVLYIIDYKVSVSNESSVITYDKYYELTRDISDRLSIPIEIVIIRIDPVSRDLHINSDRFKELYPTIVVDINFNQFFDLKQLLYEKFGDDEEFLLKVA

[4] = target: FLUV PA-Nter; design: method as in DuBois et al., 2012; details: ref DuBois et al., 2012; cited from earlier work
[5] = target: LCMV EndoN; details: ref Saez-Ayala et al., 2018, 2019; cited from earlier work

SMILES	IC50 [1] [nM]	fold greater inhibition efficiency than DPBA [1]	Kd [2]	fold better affinity than DPBA [2]	greater stabilization compared with DPBA [3]	T m increase upon addition of metal ions ([3]; 0.5 mM MnCl2, versus LACV EndoN without ions (T m of 49°C)) [°C]	Stability ΔT m ([3]; 0.5 mM MnCl2)	Stability ΔT m ([3]; 0.5 mM MnCl2, listed as baloxavir) [°C]	Kd [4] [nM]	Kd [5] [nM]
O=C(O)/C(O)=C/C(=O)C1(Cc2ccc(Cl)cc2)CCN(Cc2ccccc2)CC1 [L-742,001, (Z)-4-{1-benzyl-4-[(4-chlorophenyl)methyl]-piperidin-4-yl}-2-hydroxy-4-oxobut-2-enoic acid]	650 ± 30	1.5 fold	600 nM and 614 nM	twofold	+4 °C	–	–	–	–	–
[Cl][Mn][Cl] [MnCl2]	–	–	–	–	–	~7	–	–	–	–
O=C1c2c(O)c(=O)ccn2N([C@@H]2c3ccccc3SCc3c2ccc(F)c3F)[C@@H]2COCCN12 [Baloxavir, (R)-12-((S)-7,8-Difluoro-6,11-dihydrodibenzo[b,e]thiepin-11-yl)-7-hydroxy-3,4,12,12a-tetrahydro-1H-[1,4]oxazino[3,4-c]pyrido[2,1-f][1,2,4]triazine-6,8-dione]	340 ± 20	threefold	19 ± 6 nM	68 fold	+6 °C	–	+12.72 ± 0.18 °C	~13	–	–
O=C(O)C(=O)CC(=O)c1ccccc1 [DPBA, 2,4-Dioxo-4-phenylbutanoic acid]	990 ± 60	–	1350 ± 250 nM	–	–	–	–	–	4500	5400
